The text below walks through data of the supplement of paper PMC10307832.

Assay in all cases: relative viability (nuclei count vs DMSO), 5 days (fraction); higher = more cells survive
Compound in the assay “Mirin + AZD7762”: N=C1NC(=O)/C(=C/c2ccc(O)cc2)S1 [Mirin] + NC(=O)Nc1cc(-c2cccc(F)c2)sc1C(=O)N[C@H]1CCCNC1 [AZD7762] (partner 0.2 µM)
Summed up:
(§1)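 A single step with final 0.05% Triton X-100, 1% formaldehyde and 1 ug/ml Hoechst fixed the cells and stained nuclei 5 days after treatment. Lung cancer cell lines in 1536-well plates had been treated by pin tool the day after seeding with one drug alone or a fixed anchor-drug dose plus five library-drug doses (not always all listed) in √10 steps, and nuclei were counted on 4× images. Relative viability is the ratio of nuclei in treated wells to nuclei in vehicle wells, taken as the median of duplicate plates.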

Compound in the assay “Mirin + Trametinib”: N=C1NC(=O)/C(=C/c2ccc(O)cc2)S1 [Mirin] + CC(=O)Nc1cccc(-n2c(=O)n(C3CC3)c(=O)c3c(Nc4ccc(I)cc4F)n(C)c(=O)c(C)c32)c1 [Trametinib] (partner 0.02 µM)
The gist of the method: as §1

Compound in assay [1]: CCC1=CN=CN=C1N2CCN(CC2)CC3=NC4=C(N3)C=C(C=C4)C(F)(F)F + CS(=O)(=O)N1CCN(Cc2cc3nc(-c4cccc5[nH]ncc45)nc(N4CCOCC4)c3s2)CC1 [Pictilisib] (partner 1 µM)
Summed up: as §1

Compound in the assay “Mirin + Palbociclib”: N=C1NC(=O)/C(=C/c2ccc(O)cc2)S1 [Mirin] + CC(=O)c1c(C)c2cnc(Nc3ccc(N4CCNCC4)cn3)nc2n(C2CCCC2)c1=O [Palbociclib] (partner 0.5 µM)
The gist of the method: as §1

On to NCI-H2085, for which the relative viability with Mirin + AZD7762 (first compound 0.25 µM) is 0.929; in the assay with Mirin + AZD7762 (first compound 0.7906 µM), 1.11; with Mirin + AZD7762 (first compound 2.5 µM), 0.979; in the assay with Mirin + AZD7762 (first compound 7.906 µM) it was 1.02; with Mirin + AZD7762 (first compound 25 µM) it was 0.883; in the assay with Mirin + Trametinib (first compound 0.25 µM), 0.514. In addition, the relative viability with Mirin + Trametinib (first compound 0.7906 µM) was found to be 0.465; with Mirin + Trametinib (first compound 2.5 µM) it was 0.519; with Mirin + Trametinib (first compound 7.906 µM), 0.511; in the assay with Mirin + Trametinib (first compound 25 µM) it was 0.59; in assay [1] (first compound 0.04 µM), 0.468; in assay [1] (first compound 0.1265 µM) it was 0.426. Further, the relative viability in assay [1] (first compound 0.4 µM) turned out to be 0.412; in assay [1] (first compound 1.265 µM), 0.296; in assay [1] (first compound 4 µM), 0.429; in the assay with Mirin + Palbociclib (first compound 0.25 µM), 0.458; with Mirin + Palbociclib (first compound 0.7906 µM) it was 0.47; in the assay with Mirin + Palbociclib (first compound 2.5 µM), 0.495. The relative viability turned out to be 0.562 with Mirin + Palbociclib (first compound 7.906 µM) and 0.486 with Mirin + Palbociclib (first compound 25 µM).
Take NCI-H2087: the relative viability with Mirin + AZD7762 (first compound 0.25 µM) worked out at 1.31; with Mirin + AZD7762 (first compound 0.7906 µM), 1.59; with Mirin + AZD7762 (first compound 2.5 µM) it was 1.45; in the assay with Mirin + AZD7762 (first compound 7.906 µM) it was 1.3; in the assay with Mirin + AZD7762 (first compound 25 µM), 1.75; in the assay with Mirin + Trametinib (first compound 0.25 µM), 0.292. The relative viability with Mirin + Trametinib (first compound 0.7906 µM) was 0.211; with Mirin + Trametinib (first compound 2.5 µM), 0.161; with Mirin + Trametinib (first compound 7.906 µM), 0.19; in the assay with Mirin + Trametinib (first compound 25 µM), 0.209; in assay [1] (first compound 0.04 µM) it was 0.852; in assay [1] (first compound 0.1265 µM), 0.906. Moreover, the relative viability in assay [1] (first compound 0.4 µM) was 0.883; in assay [1] (first compound 1.265 µM) it was 0.819; in assay [1] (first compound 4 µM) it was 0.653; with Mirin + Palbociclib (first compound 0.25 µM) it was 0.227; in the assay with Mirin + Palbociclib (first compound 0.7906 µM), 0.297; with Mirin + Palbociclib (first compound 2.5 µM), 0.249. For the same cell line, the relative viability in the assay with Mirin + Palbociclib (first compound 7.906 µM) is 0.133; in the assay with Mirin + Palbociclib (first compound 25 µM), 0.318.
As for NCI-H2126, the relative viability with Mirin + AZD7762 (first compound 0.25 µM) was found to be 1.11; with Mirin + AZD7762 (first compound 0.7906 µM) it was 1.03; with Mirin + AZD7762 (first compound 2.5 µM), 1.05; with Mirin + AZD7762 (first compound 7.906 µM), 1.11; with Mirin + AZD7762 (first compound 25 µM) it was 0.951; in the assay with Mirin + Trametinib (first compound 0.25 µM) it was 0.604. Moreover, the relative viability with Mirin + Trametinib (first compound 0.7906 µM) worked out at 0.568; in the assay with Mirin + Trametinib (first compound 2.5 µM), 0.552; with Mirin + Trametinib (first compound 7.906 µM), 0.56; in the assay with Mirin + Trametinib (first compound 25 µM), 0.501; in assay [1] (first compound 0.04 µM), 0.518; in assay [1] (first compound 0.1265 µM), 0.496. Further, the relative viability in assay [1] (first compound 0.4 µM) is 0.493; in assay [1] (first compound 1.265 µM), 0.442; in assay [1] (first compound 4 µM), 0.496; with Mirin + Palbociclib (first compound 0.25 µM), 0.342; in the assay with Mirin + Palbociclib (first compound 0.7906 µM), 0.361; with Mirin + Palbociclib (first compound 2.5 µM) it was 0.332. Also, the relative viability with Mirin + Palbociclib (first compound 7.906 µM) was 0.394; with Mirin + Palbociclib (first compound 25 µM) it was 0.396.
With NCI-H2170, the relative viability in the assay with Mirin + AZD7762 (first compound 0.25 µM) came out at 0.926; with Mirin + AZD7762 (first compound 0.7906 µM), 0.752; in the assay with Mirin + AZD7762 (first compound 2.5 µM), 0.823; with Mirin + AZD7762 (first compound 7.906 µM) it was 0.849; with Mirin + AZD7762 (first compound 25 µM), 0.848; with Mirin + Trametinib (first compound 0.25 µM), 0.981. In addition, the relative viability was found to be 0.875 with Mirin + Trametinib (first compound 0.7906 µM); 0.976 with Mirin + Trametinib (first compound 2.5 µM); 0.915 with Mirin + Trametinib (first compound 7.906 µM); 0.859 with Mirin + Trametinib (first compound 25 µM); 0.303 in assay [1] (first compound 0.04 µM); 0.304 in assay [1] (first compound 0.1265 µM). For the same cell line, the relative viability in assay [1] (first compound 0.4 µM) is 0.274; in assay [1] (first compound 1.265 µM), 0.289; in assay [1] (first compound 4 µM), 0.325; with Mirin + Palbociclib (first compound 0.25 µM), 0.415; with Mirin + Palbociclib (first compound 0.7906 µM), 0.379; with Mirin + Palbociclib (first compound 2.5 µM), 0.374. Further, the relative viability in the assay with Mirin + Palbociclib (first compound 7.906 µM) turned out to be 0.361; in the assay with Mirin + Palbociclib (first compound 25 µM), 0.436.
Take NCI-H2347: the relative viability in the assay with Mirin + AZD7762 (first compound 0.25 µM) was 0.946; with Mirin + AZD7762 (first compound 0.7906 µM) it was 0.786; in the assay with Mirin + AZD7762 (first compound 2.5 µM), 0.861; with Mirin + AZD7762 (first compound 7.906 µM) it was 0.669; with Mirin + AZD7762 (first compound 25 µM), 0.704; with Mirin + Trametinib (first compound 0.25 µM), 0.301. The relative viability with Mirin + Trametinib (first compound 0.7906 µM) worked out at 0.313; in the assay with Mirin + Trametinib (first compound 2.5 µM), 0.26; with Mirin + Trametinib (first compound 7.906 µM), 0.3; with Mirin + Trametinib (first compound 25 µM), 0.274; in assay [1] (first compound 0.04 µM), 0.58; in assay [1] (first compound 0.1265 µM), 0.591. Also, the relative viability was 0.652 in assay [1] (first compound 0.4 µM); 0.671 in assay [1] (first compound 4 µM); 0.444 with Mirin + Palbociclib (first compound 0.25 µM); 0.465 in the assay with Mirin + Palbociclib (first compound 0.7906 µM); 0.506 with Mirin + Palbociclib (first compound 2.5 µM); 0.422 with Mirin + Palbociclib (first compound 7.906 µM). In the assay with Mirin + Palbociclib (first compound 25 µM), the relative viability was 0.436.
